Measurements taken from a compilation of properties of binary mixtures (doi:10.1007/s10953-012-9875-7).

Assay: xn = mol fraction of the nth substance listed
Conditions: 101 kPa

O + CCCC[n+]1ccc(C)cc1.N#C[S-]
x1 = 1
Conditions | viscosity [mPa·s]
298.15 K | 0.89
308.15 K | 0.74
318.15 K | 0.63
328.15 K | 0.56
338.15 K | 0.5
348.15 K | 0.43

CCCC[n+]1ccc(C)cc1.N#C[S-] + O
viscosity [mPa·s]
Conditions | 298.15 K | 308.15 K | 318.15 K | 328.15 K | 338.15 K | 348.15 K
x1 = 0.0076 | 1.07 | 0.87 | – | 0.63 | 0.57 | 0.52
x2 = 0 | 86 | 51.75 | – | 23.5 | – | 12.86
x2 = 0.0564 | – | 46 | 30.4 | 21.3 | 15.54 | 11.74
x2 = 0.1655 | 57.6 | 36.4 | 24.6 | 17.5 | – | –
x2 = 0.278 | 43.1 | 28 | 19.3 | 13.95 | 10.49 | 8.18
x2 = 0.3797 | 31.3 | 20.9 | 14.68 | 10.87 | – | 6.62
x2 = 0.4628 | 24.8 | 16.8 | 12.14 | 9.17 | – | 5.73
x2 = 0.5669 | 17.8 | 12.47 | 9.17 | 7.02 | – | –
x2 = 0.6364 | 14.06 | – | 7.48 | 5.78 | 4.58 | 3.69
x2 = 0.7623 | 8.6 | 6.3 | 4.78 | 3.7 | – | 2.44
x2 = 0.8333 | 6.04 | 4.45 | 3.37 | 2.66 | 2.08 | 1.62
x2 = 0.9028 | 3.65 | 2.74 | 2.13 | – | 1.41 | 1.24
x2 = 0.957 | 1.98 | 1.53 | 1.23 | – | 0.86 | –
x2 = 0.9714 | – | – | – | – | – | 0.64

CCCC[n+]1ccn(C)c1.N#C[S-] + O
viscosity [mPa·s]
Conditions | 298.15 K | 308.15 K | 318.15 K | 328.15 K | 338.15 K | 348.15 K
x2 = 0 | 51.74 | 34.9 | 24.2 | – | 12.73 | 9.98
x2 = 0.0998 | 40.2 | 26.9 | 19.1 | – | 10.98 | 8.73
x2 = 0.2007 | – | – | – | 12.2 | 9.53 | 7.61
x2 = 0.3169 | – | 18.1 | – | 10.12 | – | 6.4
x2 = 0.4346 | 19.5 | 13.91 | 10.4 | 8.04 | 6.37 | 5.14
x2 = 0.5296 | 15.17 | 10.96 | 8.29 | 6.44 | – | –
x2 = 0.6426 | 10.8 | 7.95 | 6.05 | – | 3.76 | 3.1
x2 = 0.7201 | 8.27 | 6.14 | – | – | 2.96 | 2.48
x2 = 0.7949 | 5.95 | 4.36 | 3.33 | 2.67 | – | 1.86
x2 = 0.8733 | 3.75 | 2.84 | 2.23 | 1.82 | 1.51 | 1.28
x2 = 0.9444 | 2.02 | 1.58 | 1.27 | 1.05 | 0.9 | 0.78
